Measured values taken from patent publication US9028831B2, “Markers for selecting personalized therapies for the treatment of cancer” (Fundació Institut de Recerca Hospital Universitari Vall …, priority 2009, dated 2015).
Entries after “also recorded” stand apart in the source; their conditions may differ. Like-named read-outs stand apart in the source and are kept apart here.

Key:
[1] = system: DT40 knock-out cells with APTX re-introduced; assay: Camptothecin-induced apoptosis in DT40 knock-out cells with APTX re-introduced; format: cell-based, Chicken; details: APTX knock-out DT40 cells with APTX reintroduced, 15-25 nM, 72 hours
Procedure: (§1) Chicken parental B cell line DT40, a sub-line where ATPX was interrupted by means of homologous recombination and a derivative line where APTX was re-introduced in the knock-out cells were used (Abel I, et al., Nature 2006; 443: 713-6). Camptothecin-induced apoptosis was evaluated as has been previously described (Arango D, et al., Cancer Res 2001; 61: 4910-5; Arango D, et al., Br J Cancer 2003; 89: 1757-65). Briefly, 2.5×10^5 cells were seeded by triplicate in 6-well Falcon plates (Becton Dickinson) and were left to adhere for 24 hours before sucking out the medium and changing it with fresh medium containing 0, 15 or 25 nM camptothecin (Calbiochem, San Diego, Calif.). After 72 hours of treatment, both the adhered cells and those that floated were collected, they were washed two times with 2 ml of PBS, and resuspended in PBS containing 50 μg/ml propidium iodide, 0.1% sodium citrate, and 0.1% Triton X-100. The cells were stained overnight at 4° C. and the DNA content was analyzed using a cell separator (FACSCalibur; Becton Dickinson). The cell debris were discarded, and the proportion of cells with subdiploid DNA content typical of apoptotic cells was quantified using WinList 2.0 (Verity Software House, Inc.). All the experiments were carried out in triplicate, and the mean from three independent experiments is shown.

[2] = system: APTX knock-out cells DT40; assay: Camptothecin-induced apoptosis in DT40 sub-line with APTX inactivated by homologous recombination; format: cell-based, Chicken; details: 15-25 nM, 72 hours, p<0.004
Procedure: as §1

parental cells DT40 = assay: Camptothecin-induced apoptosis (subdiploid DNA content, propidium iodide FACS) in parental DT40 cells; format: cell-based, Chicken; details: 15-25 nM, 72 hours
Procedure: as §1

[3] = system: metastatic colorectal cancer; assay: Response, time to progression and survival of patients receiving irinotecan-based chemotherapy, by tumor aprataxin level; format: in vivo, human; details: for time to progression (TTP) median: irinotecan-based treatment
Procedure: A total of 135 patients with metastatic colorectal cancer receiving irinotecan-based chemotherapy in Hospital Universitario Vall d'Hebron were included in the study. The response to the chemotherapeutic treatment was evaluated by means of computerized axial tomography (CAT) and a response was considered complete when the complete disappearance of metastatic lesions was observed. […] A lesion size reduction observed by CAT greater than 30% or an increase above 20% were considered as partial response or progressive disease, respectively. The study was conducted according to the research protocols approved by the Clinical Research Ethics Committee.
After the histological examination of tumor sample sections stained with hematoxylin and eosin and fixed with formalin embedded in paraffin, areas containing a large proportion of tumor cells were selected from the 135 patients. Cores of 1.2 mm of tumor samples from each patient were arranged in duplicate in a new paraffin block using an apparatus for preparing tissue matrices from Beecher Instruments (Beecher Instruments, Silver Spring, Md.).
4 μm unstained sections of the tissue microarrays were mounted on slides coated with 3-aminopropyl-triethoxy-silane (Sigma, St. Louis, Mo., USA). The sections were deparaffinized in xylene and rehydrated by means of a gradual series of alcohol and distilled water. The antigen was recovered with preheated 10 mM pH=6 citrate buffer for 20 minutes at 95° C. For the immunohistochemical analysis, the commercial Novolink polymer detection system was used according to the manufacturer's instructions (Novocastra Laboratories; Newcastle, UK). A rabbit anti-aprataxin polyclonal antibody made against the C-terminus end of human aprataxin was used at a dilution 1:100 (4° C. overnight; Aviva Systems Biology Corp.; San Diego, Calif.). The staining was viewed using a solution of 3,3′-diaminobenzidine (DAB) and the sections were counter stained in Mayer's hematoxylin, washed in water, dehydrated through a series of ethanol solution, clarified in xylene and mounted. The aprataxin levels were evaluated without knowing the clinical data. A semi-quantitative scale from 0 to 3 was used to measure the staining intensity. The absence of aprataxin staining was graded as 0 and the low, moderate and high aprataxin levels were graded as 1, 2, and 3, respectively (see FIG. 2A-D). The mean grading of samples in duplicate was used in subsequent analysis.
Survival curves were plotted using Kaplan and Meier method and the survival differences were evaluated using log-rank test. Cox's proportional hazard model was used to evaluate the simultaneous contribution of the following covariables in the overall survival: sex, age, histological grade, and tumor aprataxin levels. Fisher's exact test, Chi-squared test and Mann-Whitney test were used to evaluate the differences between clinicopathological parameters in patients with high and low aprataxin levels (see Table 1). It was considered that the p values of less than 0.05 indicated statistic significant.

Row | SMILES | CPT resistant phenotype after reintroduction of APTX [1] | apoptosis induction / sensitization to CPT [2] | apoptosis induction (parental cells DT40) | Overall survival median [3] | Overall survival median ([3]; Low aprataxin patients) | Overall survival median ([3]; Total patients) | hazard ratio, overall survival ([3]; high vs absent/low aprataxin, 95% CI 1.21-3.63, log-rank p=0.008) | hazard ratio, time to progression ([3]; moderate/high vs absent/low aprataxin, 95% CI 1.04-2.29, log-rank p=0.03) | time to progression (TTP) median ([3]; patients with absence or low aprataxin levels) | time to progression (TTP) median ([3]; patients with moderate or high tumor aprataxin levels)
1 | CC[C@@]1(O)C(=O)OCc2c1cc1n(c2=O)Cc2cc3ccccc3nc2-1 [CPT, camptothecin] | completely reestablished the CPT resistant phenotype; also recorded: fully reestablished the resistant phenotype | significantly sensitized; also recorded: significantly increased apoptosis induction | modest apoptosis induction | – | – | – | – | – | – | –
2 | CCc1c2c(nc3ccc(OC(=O)N4CCC(N5CCCCC5)CC4)cc13)-c1cc3c(c(=O)n1C2)COC(=O)[C@]3(O)CC [irinotecan] | – | – | – | 19 months | 36.7 months | 26.3 months | 2.1 | 1.5 | 9.2 months | 5.5 months
